Results on eight compounds are retold here after ChEMBL document CHEMBL1201862, “PubChem BioAssay data set” (2004).

SMILES strings stand for the structures.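 Values below derive from 48-hour exposures of cells grown in 96-well plates, with endpoints linearly interpolated between the two concentrations bracketing the appropriate inhibition level. GI50 = concentration required for 50% inhibition of growth.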 The source made the active and inactive calls. Cut-off read from the data, not from the text of the source: active = GI50 up to about 1.1 µM and inactive = higher. Bounds are passed on as bounds.

Test systems include A498; A549; ACHN; COLO 205; DU-145; HL-60; HT-29; Hs-578T; KM12; LOX IMVI; M14; MCF7; MDA-MB-231; Malme-3M; NCI-H460; OVCAR-4; SF-539; SK-MEL-5; SR; U-251.
What all share (assay): inhibition of tumour cell growth, NCI panel, 48 h

As to `Oc1cc(-c2ccccc2Cl)nc2cc3c(cc12)OCO3`, the GI50 is 0.116 µM (active) with A498; 0.156 µM (active) in the assay with A549; 0.731 µM (active) in the assay with ACHN; 0.0507 µM (active) in the assay with COLO 205; 0.121 µM (active) in the assay on DU-145; 0.0207 µM (active) with HL-60. The GI50 was 0.0676 µM (active) in the assay on HT-29; 0.44 µM (active) in the assay with Hs-578T; 0.0486 µM (active) with KM12; 0.0541 µM (active) with LOX IMVI; 0.11 µM (active) in the assay on M14; 0.0518 µM (active) in the assay on MCF7. For the same compound, the GI50 with MDA-MB-231 is 0.143 µM (active); with Malme-3M it was 0.0598 µM (active); with NCI-H460, 0.0719 µM (active); in the assay on OVCAR-4, 2.76 µM (inactive); with SF-539, 0.103 µM (active); in the assay with SK-MEL-5 it was 0.0435 µM (active). For the same compound, the GI50 in the assay on SR was 0.0562 µM (active); in the assay with U-251 it was 0.0736 µM (active).
`O=C1/C(=C/c2ccc(O)cc2)CCC1CNc1ccc(Cl)cc1` (stereo not given): the GI50 with A498 was 15 µM (inactive); with A549, 7.01 µM (inactive); in the assay on ACHN, 0.76 µM (active); in the assay with COLO 205, 1.19 µM (inactive); in the assay on DU-145, 13.3 µM (inactive); in the assay on HL-60, 0.861 µM (active). Besides, the GI50 in the assay with HT-29 is 1.53 µM (inactive); in the assay with Hs-578T, 17.7 µM (inactive); with KM12, 0.895 µM (active); in the assay on LOX IMVI it was 0.27 µM (active); in the assay on M14, 0.643 µM (active); in the assay on MCF7, 1.34 µM (inactive). Further, the GI50 in the assay on MDA-MB-231 is 3.04 µM (inactive); in the assay with Malme-3M, 4.28 µM (inactive); in the assay on NCI-H460, 4.15 µM (inactive); in the assay on OVCAR-4, 2.96 µM (inactive); in the assay on SF-539 it was 6.37 µM (inactive); with SK-MEL-5, 4.66 µM (inactive). Besides, the GI50 in the assay on SR is 0.914 µM (active); in the assay with U-251, 5.7 µM (inactive).
Turning to `CC(C)(C)C(=O)Oc1ccc(/C=C/C(=O)c2ccc(OC(=O)C(C)(C)C)cc2)cc1`, the GI50 is 81.5 µM (inactive) in the assay with A498; 67.6 µM (inactive) in the assay on A549; > 100 µM (inactive) with ACHN; 69.7 µM (inactive) with COLO 205; 41 µM (inactive) in the assay on DU-145; 47 µM (inactive) in the assay on HL-60. In addition, the GI50 in the assay with HT-29 was 47.3 µM (inactive); in the assay on Hs-578T, 18 µM (inactive); in the assay with KM12 it was 16.6 µM (inactive); with LOX IMVI, 44.5 µM (inactive); with M14, > 100 µM (inactive); in the assay on MCF7, 46.5 µM (inactive). Besides, the GI50 with MDA-MB-231 is > 100 µM (inactive); in the assay with Malme-3M, > 100 µM (inactive); with NCI-H460, > 100 µM (inactive); with OVCAR-4, 56.2 µM (inactive); with SF-539, 33 µM (inactive); in the assay on SK-MEL-5 it was > 100 µM (inactive). Moreover, the GI50 with SR is 20.7 µM (inactive); in the assay on U-251 it was 40.2 µM (inactive).
Turning to `COc1ccccc1/C=C/c1ccnc2ccccc12`, the GI50 was 15.4 µM (inactive) in the assay on A498; 14.5 µM (inactive) in the assay with A549; 16.4 µM (inactive) with ACHN; 17.1 µM (inactive) in the assay on COLO 205; 16.4 µM (inactive) in the assay on DU-145; 7.64 µM (inactive) in the assay with HL-60. The GI50 in the assay with HT-29 was 12.8 µM (inactive); with Hs-578T, 14.7 µM (inactive); in the assay with KM12, 12.3 µM (inactive); in the assay on LOX IMVI, 16.3 µM (inactive); in the assay on M14, 16.2 µM (inactive); in the assay on MCF7 it was 4.25 µM (inactive). Further, the GI50 is 16.1 µM (inactive) in the assay on MDA-MB-231; 11.7 µM (inactive) in the assay on Malme-3M; 15.5 µM (inactive) in the assay with NCI-H460; 12.8 µM (inactive) with OVCAR-4; 14.6 µM (inactive) in the assay with SF-539; 13.5 µM (inactive) in the assay with SK-MEL-5. For the same compound, the GI50 is 12.8 µM (inactive) in the assay on SR and 11.9 µM (inactive) with U-251.
Take `O=[N+]([O-])c1ccc(S(=O)(=O)N=Ic2ccccc2)cc1`: the GI50 with A498, in the assay with A549, in the assay on ACHN, in the assay on COLO 205, in the assay on DU-145 and in the assay with HL-60 was > 100 µM (inactive) each time. Also, the GI50 in the assay on HT-29, with Hs-578T, in the assay with KM12, with LOX IMVI, in the assay on M14 and with MCF7 was > 100 µM (inactive) throughout. Also, the GI50 in the assay with MDA-MB-231, with Malme-3M, in the assay with NCI-H460, with OVCAR-4, with SF-539 and with SK-MEL-5 was > 100 µM (inactive) each time. Also, the GI50 with SR and in the assay with U-251 was > 100 µM (inactive) throughout.
Take `NCC(O)CNC(=O)c1ccc(-c2ccc(-c3ccc(C(=O)NCC(O)CN)cc3)o2)cc1` (stereo not given): the GI50 was 25 µM (inactive) in the assay with A498; 37.4 µM (inactive) with A549; 45.9 µM (inactive) in the assay with ACHN; 81.8 µM (inactive) in the assay with COLO 205; 22 µM (inactive) with DU-145; > 100 µM (inactive) in the assay on HL-60. The GI50 in the assay with HT-29 is > 100 µM (inactive); in the assay with Hs-578T, 25.3 µM (inactive); in the assay with KM12, 51.2 µM (inactive); in the assay on LOX IMVI, 45 µM (inactive); in the assay with M14, > 100 µM (inactive); in the assay with MCF7 it was 32.8 µM (inactive). Moreover, the GI50 is 24.5 µM (inactive) in the assay with MDA-MB-231; 21.7 µM (inactive) in the assay with Malme-3M; 59 µM (inactive) with NCI-H460; 36.5 µM (inactive) in the assay on OVCAR-4; 19.1 µM (inactive) in the assay on SF-539; 33.3 µM (inactive) in the assay with SK-MEL-5. Besides, the results for the GI50 with SR and with U-251 were 67.5 µM (inactive) and 21.5 µM (inactive), respectively.
As to `Cc1cc2c3c(c1)CCCN3CCC2`, the GI50 with A498, with A549, with ACHN, with COLO 205, in the assay on DU-145 and with HL-60 was > 10 µM (inactive) throughout. Besides, the GI50 with HT-29, in the assay with Hs-578T, in the assay on KM12, in the assay with LOX IMVI, in the assay on M14 and with MCF7 was > 10 µM (inactive) in each case. Further, the GI50 in the assay on MDA-MB-231, with Malme-3M, with NCI-H460, with OVCAR-4, in the assay with SF-539 and with SK-MEL-5 was > 10 µM (inactive) each time. Besides, the GI50 in the assay on SR and with U-251 was > 10 µM (inactive) in each case.
As for `COC(=O)C1(NC(=O)C(N)CC(=O)O)C(C)C1C` (stereo not given), the GI50 in the assay with A498, in the assay with A549, in the assay with ACHN, in the assay on COLO 205, with DU-145 and in the assay on HL-60 was > 100 µM (inactive) each time. Also, the GI50 in the assay with HT-29, in the assay with Hs-578T, in the assay with KM12, with LOX IMVI, in the assay with M14 and in the assay on MCF7 was > 100 µM (inactive) each time. Moreover, the GI50 in the assay on MDA-MB-231, with Malme-3M, with NCI-H460, in the assay on OVCAR-4, in the assay on SF-539 and in the assay on SK-MEL-5 was > 100 µM (inactive) each time. Also, the GI50 in the assay on SR and in the assay on U-251 was > 100 µM (inactive) throughout.
